# Assays:
# [1] = system: DNFB-elicited allergic contact dermatitis (contact hypersensitivity reaction); conditions: for Efficacy, global mean of differences in scores of untreated and treated test sites: erythema and induration scored 24 hours after DNFB challenge, 80 mg formulation topically at 30 minutes and 6 hours after challenge, 1% Elidel cream, 0.1% Zorac gel; for Efficacy %, single drug treatment with pimecrolimus set to 100%: relative to pimecrolimus/pimecrolimus, topical at 30 minutes and 6 hours after challenge, scored at 24 hours
# Experimental: 12 days before elicitation of ACD, 17 male domestic pigs receive 500 μl of 10% 2,4-dinitrofluorobenzene (DNFB) dissolved in dimethylsulfoxide/acetone/olive oil (1:5:3 v/v/v) epicutaneously in divided volumes onto the base of both ears and onto both groins (100 μl/site) for sensitization. The challenge reaction is elicited with 15 μl of DNFB 1.0% on test sites (7 cm^2 in size) arranged on both sides of the shaved dorsolateral back.
# The test sites on the right dorsolateral side are treated with 80 mg formulation twice whereas the left controlateral test sites remain untreated for comparison. The test sites are treated 30 minutes after challenge, followed by the second application at 6 hours of the same drug or, in case of combination, the other drug.
# [2] = system: allogeneic kidney transplantation; conditions: oral administration; cited from earlier work
Compound,superiority in comparison with tazarotene/tazarotene treatment ([1]; difference of relative efficacy %),"Efficacy, global mean of differences in scores of untreated and treated test sites [1]","Efficacy %, single drug treatment with pimecrolimus set to 100% [1]","inhibition of the contact hypersensitivity reaction ([1]; single drug treatment, two topical applications, scored 24 hours after challenge)",minimum effective dose (MED) [2]
"{[1E-(1R,3R,4S)]}1R,9S,12S, 13R,14S,17R,18E,21S,23S,24R,25S,27R}-12-[2-(4-chloro-3-methoxycyclohexyl)-1-methylvinyl]-17-ethyl-1,14-dihydroxy-23,25-dimethoxy-13,19,21,27-tetramethyl-11, 28,dioxa-4-azatricyclo [22.3.1.0(4,9)]octacos-18-ene-2,3,10,16-tetraone [pimecrolimus]",11%,3.34,100%,57%,
C=CC[C@@H]1/C=C(\C)C[C@H](C)C[C@H](OC)[C@H]2O[C@@](O)(C(=O)C(=O)N3CCCC[C@H]3C(=O)O[C@H](/C(C)=C/[C@@H]3CC[C@@H](O)[C@H](OC)C3)[C@H](C)[C@@H](O)CC1=O)[C@H](C)C[C@@H]2OC [tacrolimus],,,,,14 mg/kg
CCOC(=O)c1ccc(C#Cc2ccc3c(c2)C(C)(C)CCS3)nc1 [tazarotene],,2.96,89%,,

# From US20060100187A1, “Synergistic combinations of macrolide t-cell modulator or immunosuppressant and a retinoid” (priority 2003, published 2006)
